Assay results taken from ChEMBL document CHEMBL3885881, “DrugMatrix”.

Species on record: Rattus norvegicus
Experiment: DrugMatrix - Regimen: Daily Repeat
Assay type: toxicity, organism-based, Sprague-Dawley
Design: regimen Daily Repeat, gender Male, age 6-8 weeks
Conditions: in vivo, po, route oral GAVAGE, vehicle 100 % WATER; for ABSOLUTE BASOPHIL / ABSOLUTE EOSINOPHIL / ABSOLUTE LYMPHOCYTE / ABSOLUTE MONOCYTE / ABSOLUTE SEGMENTED NEUTROPHIL / BASOPHIL / EOSINOPHIL / ERYTHROCYTE COUNT / HEMATOCRIT / HEMOGLOBIN / LEUKOCYTE COUNT / LYMPHOCYTE / MEAN CORPUSCULAR HEMOGLOBIN / MEAN CORPUSCULAR HEMOGLOBIN CONCENTRATION / MEAN CORPUSCULAR VOLUME / MONOCYTE / NEUTROPHIL / NUCLEATED RED BLOOD CELLS / PLATELET COUNT: tissue Blood; for ALANINE AMINOTRANSFERASE / ALBUMIN / ALKALINE PHOSPHATASE / ASPARTATE AMINOTRANSFERASE / BLOOD UREA NITROGEN / CARBON DIOXIDE / CHLORIDE / CHOLESTEROL / CREATINE PHOSPHOKINASE / CREATININE / GLUCOSE / LACTATE DEHYDROGENASE / LIPASE / PHOSPHORUS / POTASSIUM / SODIUM / TOTAL BILIRUBIN / TOTAL PROTEIN / URIC ACID: tissue Plasma
[1] = 3 mg/kg, 120 h, dose level Low, time 5 day
[2] = 47 mg/kg, 72 h, dose level High, time 3 day
[3] = 47 mg/kg, 120 h, dose level High, time 5 day

Compound: CN(C)CC[C@@H](c1ccc(Cl)cc1)c1ccccn1 [DEXCHLORPHENIRAMINE]
- ABSOLUTE BASOPHIL [1]: 0 CELLS/uL
- ABSOLUTE EOSINOPHIL [1]: 0 CELLS/uL
- ABSOLUTE LYMPHOCYTE [1]: 15600.33 CELLS/uL
- ABSOLUTE MONOCYTE [1]: 181.67 CELLS/uL
- ABSOLUTE SEGMENTED NEUTROPHIL [1]: 884.67 CELLS/uL
- BASOPHIL [1]: 0%
- EOSINOPHIL [1]: 0%
- ERYTHROCYTE COUNT [1]: 5.61 x10E6/uL
- HEMATOCRIT [1]: 35.43%
- HEMOGLOBIN [1]: 14.3 G/DL
- LEUKOCYTE COUNT [1]: 16.67 x10E3/uL
- LYMPHOCYTE [1]: 93.67%
- MEAN CORPUSCULAR HEMOGLOBIN [1]: 25.5 pg
- MEAN CORPUSCULAR HEMOGLOBIN CONCENTRATION [1]: 40.33 G/DL
- MEAN CORPUSCULAR VOLUME [1]: 63.17 fL
- MONOCYTE [1]: 1%
- NEUTROPHIL [1]: 5.33%
- NUCLEATED RED BLOOD CELLS [1]: 0.33 /100WBC
- PLATELET COUNT [1]: 1254.33 x10E3/uL
- ALANINE AMINOTRANSFERASE [1]: 55.33 u/L
- ALBUMIN [1]: 4.17 G/DL
- ALKALINE PHOSPHATASE [1]: 407 u/L
- ASPARTATE AMINOTRANSFERASE [1]: 86.33 u/L
- BLOOD UREA NITROGEN [1]: 15 mg/dL
- CARBON DIOXIDE [1]: 32 mmol/L
- CHLORIDE [1]: 102 MEQ/L
- CHOLESTEROL [1]: 63.33 mg/dL
- CREATINE PHOSPHOKINASE [1]: 451.67 u/L
- CREATININE [1]: 0.18 mg/dL
- GLUCOSE [1]: 121.33 mg/dL
- LACTATE DEHYDROGENASE [1]: 251 u/L
- LIPASE [1]: 10.33 u/L
- PHOSPHORUS [1]: 12.1 mg/dL
- POTASSIUM [1]: 6.1 MEQ/L
- SODIUM [1]: 144.9 MEQ/L
- TOTAL BILIRUBIN [1]: 0.23 mg/dL
- TOTAL PROTEIN [1]: 6.07 G/DL
- URIC ACID [1]: 1.37 mg/dL
- ABSOLUTE BASOPHIL [2]: 0 CELLS/uL
- ABSOLUTE EOSINOPHIL [2]: 62.67 CELLS/uL
- ABSOLUTE LYMPHOCYTE [2]: 12240 CELLS/uL
- ABSOLUTE MONOCYTE [2]: 133 CELLS/uL
- ABSOLUTE SEGMENTED NEUTROPHIL [2]: 864.33 CELLS/uL
- BASOPHIL [2]: 0%
- EOSINOPHIL [2]: 0.67%
- ERYTHROCYTE COUNT [2]: 5.93 x10E6/uL
- HEMATOCRIT [2]: 38.13%
- HEMOGLOBIN [2]: 14.77 G/DL
- LEUKOCYTE COUNT [2]: 13.3 x10E3/uL
- LYMPHOCYTE [2]: 91.33%
- MEAN CORPUSCULAR HEMOGLOBIN [2]: 24.9 pg
- MEAN CORPUSCULAR HEMOGLOBIN CONCENTRATION [2]: 38.73 G/DL
- MEAN CORPUSCULAR VOLUME [2]: 64.3 fL
- MONOCYTE [2]: 1%
- NEUTROPHIL [2]: 7%
- NUCLEATED RED BLOOD CELLS [2]: 0 /100WBC
- PLATELET COUNT [2]: 1535.33 x10E3/uL
- ALANINE AMINOTRANSFERASE [2]: 44.33 u/L
- ALBUMIN [2]: 4.03 G/DL
- ALKALINE PHOSPHATASE [2]: 352 u/L
- ASPARTATE AMINOTRANSFERASE [2]: 75 u/L
- BLOOD UREA NITROGEN [2]: 14.67 mg/dL
- CARBON DIOXIDE [2]: 33.67 mmol/L
- CHLORIDE [2]: 102 MEQ/L
- CHOLESTEROL [2]: 65 mg/dL
- CREATINE PHOSPHOKINASE [2]: 246.67 u/L
- CREATININE [2]: 0.17 mg/dL
- GLUCOSE [2]: 153.67 mg/dL
- LACTATE DEHYDROGENASE [2]: 134 u/L
- LIPASE [2]: 10.67 u/L
- PHOSPHORUS [2]: 12.47 mg/dL
- POTASSIUM [2]: 6.39 MEQ/L
- SODIUM [2]: 145.23 MEQ/L
- TOTAL BILIRUBIN [2]: 0.17 mg/dL
- TOTAL PROTEIN [2]: 5.97 G/DL
- URIC ACID [2]: 1.93 mg/dL
- ABSOLUTE BASOPHIL [3]: 0 CELLS/uL
- ABSOLUTE EOSINOPHIL [3]: 0 CELLS/uL
- ABSOLUTE LYMPHOCYTE [3]: 14891.67 CELLS/uL
- ABSOLUTE MONOCYTE [3]: 0 CELLS/uL
- ABSOLUTE SEGMENTED NEUTROPHIL [3]: 875 CELLS/uL
- BASOPHIL [3]: 0%
- EOSINOPHIL [3]: 0%
- ERYTHROCYTE COUNT [3]: 6.11 x10E6/uL
- HEMATOCRIT [3]: 38.9%
- HEMOGLOBIN [3]: 14.93 G/DL
- LEUKOCYTE COUNT [3]: 15.77 x10E3/uL
- LYMPHOCYTE [3]: 94.33%
- MEAN CORPUSCULAR HEMOGLOBIN [3]: 24.47 pg
- MEAN CORPUSCULAR HEMOGLOBIN CONCENTRATION [3]: 38.37 G/DL
- MEAN CORPUSCULAR VOLUME [3]: 63.73 fL
- MONOCYTE [3]: 0%
- NEUTROPHIL [3]: 5.67%
- NUCLEATED RED BLOOD CELLS [3]: 0 /100WBC
- PLATELET COUNT [3]: 1215 x10E3/uL
- ALANINE AMINOTRANSFERASE [3]: 35.67 u/L
- ALBUMIN [3]: 4.17 G/DL
- ALKALINE PHOSPHATASE [3]: 323 u/L
- ASPARTATE AMINOTRANSFERASE [3]: 76.67 u/L
- BLOOD UREA NITROGEN [3]: 14.67 mg/dL
- CARBON DIOXIDE [3]: 30.67 mmol/L
- CHLORIDE [3]: 101.33 MEQ/L
- CHOLESTEROL [3]: 61.67 mg/dL
- CREATINE PHOSPHOKINASE [3]: 322 u/L
- CREATININE [3]: 0.13 mg/dL
- GLUCOSE [3]: 169.67 mg/dL
- LACTATE DEHYDROGENASE [3]: 202.67 u/L
- LIPASE [3]: 11 u/L
- PHOSPHORUS [3]: 12.57 mg/dL
- POTASSIUM [3]: 5.79 MEQ/L
- SODIUM [3]: 144.7 MEQ/L
- TOTAL BILIRUBIN [3]: 0.2 mg/dL
- TOTAL PROTEIN [3]: 6.33 G/DL
- URIC ACID [3]: 1.57 mg/dL
